Assay results: US6500959B1, “Pyrrolidine derivatives and processes for preparing same” (GPI NIL Holdings, Inc., priority 1995, dated 2002)
Entries after “also recorded” stand apart in the source; their conditions may differ. Read-outs that look alike come from different tables or passages of the source.

Columns and labels:
[1] = tested on: chick dorsal root ganglia; test: Chick dorsal root ganglion cultures and neurite outgrowth; assay type: cell-based; conditions: read-out: ED50, neurite outgrowth
Source text: (§1) Forty-eight hours later, the number of neurite with a length greater than one DRG explant was quantitated. The number of neurites expressed in untreated DRG's was subtracted from the neurite number of Example 17—treated samples to yield Example 17—dependent specific neurite outgrowth.
as §1, with “form” for “from”, “outgrowth. Quantitative dose-dependent neurite outgrowth elicited by Example 17 is presented.” for “outgrowth.”
Dorsal root ganglia were dissected from chick embryos of ten day gestation. Whole ganglion explants were cultured on thin layer Matrigel-coated 12 well plates with Liebovitz L15 plus high glucose media supplemented with 2 mM glutamine and 10% fetal calf serum, and also containing 10 μM cytosine β-D arabinofuranoside (Ara C) at 37° C. in an environment containing 5% CO2. Twenty-four hours later, the DRGs were treated with various concentrations of nerve growth factor, immunophilin ligands or combinations of NFG plus drugs. Forty-eight hours after drug treatment, the ganglia were visualized under phase contrast or Hoffman Modulation contrast with a Zeiss Axiovert inverted microscope. Photomicrographs of the explants were made, and neurite outgrowth was quantitated. Neurites longer than the DRG diameter were counted as positive, with total number of neurites quantitated per each experimental condition. Three to four DRGs are cultured per well, and each treatment was performed in duplicate.

FKBP = FKBP (Homo sapiens, UniProt P62942); test: Ki test procedure: inhibition of peptidyl-prolyl isomerase (rotamase) activity, chymotrypsin-coupled assay; assay type: biochemical; conditions: apparent Ki
Sequence of FKBP (P62942 whole entry): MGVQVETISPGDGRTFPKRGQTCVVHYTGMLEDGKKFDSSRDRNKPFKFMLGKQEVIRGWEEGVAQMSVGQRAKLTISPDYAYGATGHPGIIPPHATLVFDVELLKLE
Description: The inhibition of this reaction caused by the addition of different concentrations of inhibitor is determined, and the data is analyzed as a change in first-order rate constant as a function of inhibitor concentration to yield the apparent Ki values.
In a plastic cuvette are added […] of ice cold assay buffer (25 mM HEPES, pH 7.8, 100 mM NaCl), […] of FKBP (2.5 mM in 10 mM Tris-Cl pH 7.5, 100 mM NaCl, 1 mM dithiothreitol), […] of chymotrypsin (50 mg/ml in 1 mM HCl) and […] of test compound at various concentrations in dimethyl sulfoxide.

sciatic nerve = test: Sciatic nerve axotomy (crush), axon number and myelination; assay type: in vivo, Sprague-Dawley rats
Source text: FIGS. 3A-3D are photomicrographs of rat […] sections. […] Sciatic nerves of 150 g male Sprague-Dawley rats were crushed at the level of the hips. […] Animals were sacrificed, sciatic nerves removed and nerve segments 2 mm distal to the crush site were sectioned and stained with Holmes silver stain (to assess axon number) and Luxol fast blue (to assess remyelination). The micrographs show sciatic nerve sections of sham operated rats, vehicle-treated lesioned animals. […] Six-week old male Sprague-Dawley rats were anesthetized, and the sciatic nerve exposed and crushed, at the level of the hip, by forceps. Test compounds or vehicle were administered subcutaneously just prior to the lesion and daily for the following 18 days. Sections of the sciatic nerve were stained with Holmes silver stain to quantify the number of axons, and Luxol fast blue to quantify the level of myelination. […] “Sham” denotes control animals that received vehicle but were not lesioned; “Vehicle” denotes animals that were lesioned and received only vehicle (i.e., no drug).

[2] = chick DRG explants, 48 h after drug treatment
[3] = 30 mg/kg s.c., just prior to lesion and daily for 18 days

Row | Ki (FKBP) [nM] | Compound | EC50 ([1]; Gallus gallus, 48 h) [nM] | other results
1 | – | CCC(C)(C)C(=O)C(=O)N1CCC[C@H]1C(=O)OCCCc1cc(OC)c(OC)c(OC)c1 [Example 3, 3-(3,4,5-trimethoxyphenyl)-1-propyl (2S)-1-(3,3-dimethyl-1,2-dioxopentyl)-2-pyrrolidine-carboxylate] | 149 | –
2 | – | CCC(C)(C)C(=O)C(=O)N1CCC[C@H]1C(=O)OCCC(c1ccccc1)c1ccccc1 [Example 25, 3,3-diphenyl-1-propyl (2S)-1-(3,3-dimethyl-1,2-dioxopentyl)-2-pyrrolidinecarboxylate] | 0.5 | –
3 | 160 | CCC(C)(C)C(=O)C(=O)N1CCC[C@H]1C(=O)OC/C=C/c1ccc2c(c1)OCO2 [Example 6, 3-(4,5-methylenedioxyphenyl)-1-prop-2-(E)-enyl (2S)-1-(3,3-dimethyl-1,2-dioxopentyl)-2-pyrrolidinecarboxylate] | 75 | –
4 | 82 | O=C(C(=O)N1CCC[C@H]1C(=O)OC(CCc1ccccc1)c1ccccc1)C1CCCCC1 (stereo partly drawn) [Example 20, 3-phenyl-1-phenyl-1-propyl (2S)-1-(2-cyclohexyl-1,2-dioxoethyl)-2-pyrrolidinecarboxylate] | – | EC50 [1, 2]: 0.13 nM
5 | 4000 | O=C(C(=O)N1CCC[C@H]1C(=O)OCCCc1ccccc1)c1ccco1 [Example 10, 3-phenyl-1-propyl (2S)-1-(1,2-dioxo-2-[2-furanyl])ethyl-2-pyrrolidinecarboxylate] | 0.46 | –
6 | – | CC(C)(C)C(=O)C(=O)N1CCC[C@H]1C(=O)OCCCc1ccccc1 [Example 21, 3-phenyl-1-propyl (2S)-1-(2-tert-butyl-1,2-dioxoethyl)-2-pyrrolidinecarboxylate] | 0.025 | –
7 | 92 | O=C(C(=O)N1CCC[C@H]1C(=O)OCCCc1ccccc1)c1cccs1 [Example 11, 3-phenyl-1-propyl (2S)-1-(1,2-dioxo-2-[2-thienyl])ethyl-2-pyrrolidinecarboxylate] | 0.015 | –
8 | – | CCC(C)(C)C(=O)C(=O)N1CCC[C@H]1C(=O)OCCc1cc(OC)c(OC)c(OC)c1 [Example 16, 2-(3,4,5-trimethoxyphenyl)-1-ethyl (2S)-1-(3,3-dimethyl-1,2-dioxopentyl)-2-pyrrolidine-carboxylate] | 0.015 | –
9 | 600 | CCC(C)(C)C(=O)C(=O)N1CCC[C@H]1C(=O)OC/C=C/C1CCCCC1 [Example 8, 3-cyclohexyl-1-prop-2-(E)-enyl (2S)-1-(3,3-dimethyl-1,2-dioxopentyl)-2-pyrrolidinecarboxylate] | – | –
10 | – | O=C(C(=O)N1CCC[C@H]1C(=O)OCCCc1cccnc1)C1CCCCC1 [Example 26, 3-(3-pyridyl)-1-propyl (2S)-1-(2-cyclohexyl-1,2-dioxoethyl)-2-pyrrolidinecarboxylate] | 2 | –
11 | – | O=C(CCC1CCCCC1)C(=O)N1CCC[C@H]1C(=O)OCCCc1cccnc1 [Example 23, 3-(3-pyridyl)-1-propyl (2S)-1-(2-cyclohexylethyl-1,2-dioxoethyl)-2-pyrrolidinecarboxylate] | 1100 | –
12 | – | CCC(C)(C)C(=O)C(=O)N1CCC[C@H]1C(=O)OCCCc1ccncc1 [Example 19, 3-(4-Pyridyl)-1-propyl (2S)-1-(3,3-dimethyl-1,2-dioxopentyl)-2-pyrrolidinecarboxylate] | 6 | –
13 | 65 | CCC(C)(C)C(=O)C(=O)N1CCC[C@H]1C(=O)OC/C=C/c1cc(OC)c(OC)c(OC)c1 [Example 4, 3-(3,4,5-trimethoxyphenyl)-1-prop-2-(E)-enyl (2S)-1-(3,3-dimethyl-1,2-dioxopentyl)-2-pyrrolidine carboxylate] | 190 | –
14 | – | CCC(C)(C)C(=O)C(=O)N1CCC[C@H]1C(=O)OCCCc1ccccc1 [Example 1, 3-phenyl-1-propyl (2S)-1-(3,3-dimethyl-1,2-dioxopentyl)-2-pyrrolidinecarboxylate] | 53 | axon number, decrease as compared to non-lesioned control (sciatic nerve; [3]): 5%; degree of myelination, decrease as compared to control (sciatic nerve; [3]): 50%; neuronal regeneration, appearance of sciatic nerve sections (sciatic nerve; 30 mg/kg s.c., compared with sham and vehicle-treated lesioned animals): striking similarity to the sham treated animals; also recorded: promotes neuronal regeneration following sciatic nerve lesions; Axon Number (% Control) (sciatic nerve; lesioned rats, 30 mg/kg s.c. daily, Holmes silver stain): 100 % Control; Myelin Level (sciatic nerve; lesioned rats, 30 mg/kg s.c. daily, Luxol fast blue, Sham = 100): 50
15 | 20 | O=C(C(=O)N1CCC[C@H]1C(=O)OCCC(c1ccccc1)c1ccccc1)C1CCCCC1 [Example 29, 3,3-Diphenyl-1-propyl (2S)-1-cyclohexyl glyoxyl-2-pyrrolidinecarboxylate] | 10 | –
16 | – | O=C(CCC1CCCCC1)C(=O)N1CCC[C@H]1C(=O)OCCCc1ccccc1 [Example 22, 3-phenyl-1-propyl (2S)-1-(2-cyclohexyl-ethyl-1,2-dioxoethyl)-2-pyrrolidinecarboxylate] | 0.66 | –
17 | 150 | O=C(C(=O)N1CCC[C@H]1C(=O)OCCC(c1ccccc1)c1ccccc1)c1cccs1 [Example 30, 3,3-Diphenyl-1-propyl (2S)-1-(2-thienyl) glyoxyl-2-pyrrolidinecarboxylate] | 100 | –
18 | 450 | CCC(C)(C)C(=O)C(=O)N1CCC[C@H]1C(=O)OC/C=C/c1cc(OC)ccc1OC [Example 15, 3-(2,5-dimethoxyphenyl)-1-prop-2-(E)-enyl (2S)-1-(3,3-dimethyl-1,2-dioxopentyl)-2-pyrrolidine-carboxylate] | 0.8 | –
19 | – | CCC(C)(C)C(=O)C(=O)N1CCC[C@H]1C(=O)OCCCc1ccccn1 [Example 18, 3-(2-Pyridyl)-1-propyl (2S)-1-(3,3-dimethyl-1,2-dioxopentyl)-2-pyrrolidinecarboxylate] | 30 | –
20 | 170 | CCC(C)(C)C(=O)C(=O)N1CCC[C@H]1C(=O)OCCCc1ccc2c(c1)OCO2 [Example 5] | – | EC50 [1, 2]: 10 nM
21 | 1000 | O=C(C(=O)N1CCC[C@H]1C(=O)OCCCc1cccnc1)c1cccs1 [Example 27, 3-(3-Pyridyl)-1-propyl (2S)-N-([2-thienyl]glyoxyl)pyrrolidinecarboxylate] | 500 | –
22 | – | CC(C)(C)C(=O)C(=O)N1CCC[C@H]1C(=O)OCCCc1cccnc1 [Example 24, 3-(3-pyridyl)-1-propyl (2S)-1-(2-tert-butyl-1,2-dioxoethyl)-2-pyrrolidinecarboxylate] | 0.014 | –
23 | 125 | CCC(C)(C)C(=O)C(=O)N1CCC[C@H]1C(=O)OC/C=C/c1ccccc1 [Example 2, 3-phenyl-1-prop-2-(E)-enyl (2S)-1-(3,3-dimethyl-1,2-dioxopentyl)-2-pyrrolidinecarboxylate] | 105 | –
24 | – | CC(C)(C)C(=O)C(=O)N1CCC[C@H]1C(=O)OCCC(c1ccccc1)c1ccccc1 [Example 28, 3,3-Diphenyl-1-propyl (2S)-1-(3,3-dimethyl-1,2-dioxobutyl)-2-pyrrolidinecarboxylate] | 0.5 | –
25 | 100 | O=C(C(=O)N1CCC[C@H]1C(=O)OCCCc1ccccc1)c1nccs1 [Example 12, 3-phenyl-1-propyl (2S)-1-(1,2-dioxo-2-[2-thiazolyl])ethyl-2-pyrrolidinecarboxylate] | – | –
26 | 1970 | O=C(C(=O)N1CCC[C@H]1C(=O)OCCCc1ccccc1)c1ccccc1 [Example 13, 3-phenyl-1-propyl (2S)-1-(1,2-dioxo-2-phenyl)ethyl-2-pyrrolidinecarboxylate] | – | –
27 | – | CCC(C)(C)C(=O)C(=O)N1CCC[C@H]1C(=O)OCCCc1cc(OC)ccc1OC [Example 14, 3-(2,5-dimethoxyphenyl)-1-propyl (2S)-1-(3,3-dimethyl-1,2-dioxopentyl)-2-pyrrolidine-carboxylate] | 2 | –
